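Values below derive from 48-hour exposures of cells grown in 96-well plates, with endpoints linearly interpolated between the two concentrations bracketing the appropriate inhibition level. GI50: concentration for 50% inhibition of growth. TGI is the concentration that stops growth completely.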
Tests used:
Experiment in all cases: inhibition of tumour cell growth, NCI panel, 48 h
UACC-257 melanoma = system: UACC-257 melanoma
NCI/ADR-RES ovarian = system: NCI/ADR-RES ovarian
EKVX NSCLC = system: EKVX NSCLC
786-0 renal = system: 786-0 renal
UO-31 renal = system: UO-31 renal
MALME-3M melanoma = system: MALME-3M melanoma
SK-OV-3 ovarian = system: SK-OV-3 ovarian
NCI-H460 lung = system: NCI-H460 lung
A549 NSCLC = system: A549 NSCLC
HOP-92 NSCLC = system: HOP-92 NSCLC

SMILES	GI50 (UACC-257 melanoma) [µM]	TGI (UACC-257 melanoma) [µM]	GI50 (NCI/ADR-RES ovarian) [µM]	TGI (NCI/ADR-RES ovarian) [µM]	GI50 (EKVX NSCLC) [µM]	TGI (EKVX NSCLC) [µM]	GI50 (786-0 renal) [µM]	TGI (786-0 renal) [µM]	GI50 (UO-31 renal) [µM]	TGI (UO-31 renal) [µM]	GI50 (MALME-3M melanoma) [µM]	TGI (MALME-3M melanoma) [µM]	GI50 (SK-OV-3 ovarian) [µM]	TGI (SK-OV-3 ovarian) [µM]	GI50 (NCI-H460 lung) [µM]	TGI (NCI-H460 lung) [µM]	GI50 (A549 NSCLC) [µM]	TGI (A549 NSCLC) [µM]	GI50 (HOP-92 NSCLC) [µM]	TGI (HOP-92 NSCLC) [µM]
O=C1/C(=C/c2ccc(F)cc2)CN(C(=O)CCN2CCC(=NO)CC2)C/C1=C\c1ccc(F)cc1	2.4	7.05	1.9	23.4	2.19	5.9	1.48	3.45	1.37	2.84	1.86	4.89	5.22	11.5	2.02	5.17	4.09	11.2	3.21	7.39
C#CC1=CC(=O)C(OC)=CC1=O		> 100		> 100		68.1		20.1		14.3		55.2		> 100		> 100		> 100		34
O=C(NC(=O)c1c(Cl)nc2sccn12)Nc1ccc(Cl)cc1		> 100		> 100		> 100		> 90.1		> 84.4		> 100		57.5		> 100		> 100		66.6

From PubChem BioAssay (NCI)
